Reference: ChEMBL document CHEMBL3046607, “Synthesis and Herbicidal Activity of New 1-Alkyl-3-aryloxypyrazole-4-carboxamide Derivatives” (J Pestic Sci, 2004)
The source made the active and inactive calls. The rule behind the calls is not given here.

Key:
Elatine triandra [1] = experiment: Post-emergence herbicidal activity against Elatine triandra assessed as bleaching of stem/leaf parts; type: functional, organism-based; also: test concentration or dose not given here
Ammannia multiflora [2] = experiment: Post-emergence herbicidal activity against Ammannia multiflora assessed as bleaching of stem/leaf parts; type: functional, organism-based
Rotala indica [3] = experiment: Post-emergence herbicidal activity against Rotala indica assessed as bleaching of stem/leaf parts; type: functional, organism-based
Lindernia procumbens [4] = experiment: Post-emergence herbicidal activity against Lindernia procumbens assessed as bleaching of stem/leaf parts; type: functional, organism-based; also: test concentration or dose not given here
[5] = tested on: Schoenoplectiella juncoides; experiment: Post-emergence herbicidal activity against Schoenoplectiella juncoides assessed as bleaching of stem/leaf parts; type: functional, organism-based; also: test concentration or dose not given here
Ammannia multiflora [6] = experiment: Pre-emergence herbicidal activity against Ammannia multiflora at 500 g a.i/ha measured after 14 days; type: functional, organism-based
Elatine triandra [7] = experiment: Pre-emergence herbicidal activity against Elatine triandra at 500 g a.i/ha measured after 14 days; type: functional, organism-based
Oryza sativa = experiment: Phytotoxicity against Oryza sativa cv. Koshihikari (rice) at 500 g a.i/ha measured after 14 days; type: organism-based; conditions: in vivo, 336 h
Rotala indica [8] = experiment: Pre-emergence herbicidal activity against Rotala indica at 500 g a.i/ha measured after 14 days; type: functional, organism-based
Lindernia procumbens [9] = experiment: Pre-emergence herbicidal activity against Lindernia procumbens at 500 g a.i/ha measured after 14 days; type: functional, organism-based
[10] = tested on: Schoenoplectiella juncoides; experiment: Pre-emergence herbicidal activity against Schoenoplectiella juncoides at 500 g a.i/ha measured after 14 days; type: functional, organism-based
Pontederia vaginalis [11] = experiment: Pre-emergence herbicidal activity against Monochoria vaginalis at 500 g a.i/ha measured after 14 days; type: functional, organism-based
Cyperus difformis [12] = experiment: Pre-emergence herbicidal activity against Cyperus difformis at 500 g a.i/ha measured after 14 days; type: functional, organism-based
Echinochloa oryzicola [13] = experiment: Pre-emergence herbicidal activity against Echinochloa oryzicola at 500 g a.i/ha measured after 14 days; type: functional, organism-based
Lindernia procumbens [14] = experiment: Pre-emergence herbicidal activity against Lindernia procumbens assessed as bleaching of stem/leaf parts; type: functional, organism-based
Pontederia vaginalis [15] = experiment: Pre-emergence herbicidal activity against Monochoria vaginalis assessed as bleaching of stem/leaf parts; type: functional, organism-based
[16] = tested on: Schoenoplectiella juncoides; experiment: Pre-emergence herbicidal activity against Schoenoplectiella juncoides assessed as bleaching of stem/leaf parts; type: functional, organism-based
Cyperus difformis [17] = experiment: Pre-emergence herbicidal activity against Cyperus difformis assessed as bleaching of stem/leaf parts; type: functional, organism-based
Echinochloa oryzicola [18] = experiment: Pre-emergence herbicidal activity against Echinochloa oryzicola assessed as bleaching of stem/leaf parts; type: functional, organism-based
Cyperus difformis [19] = experiment: Post-emergence herbicidal activity against Cyperus difformis assessed as bleaching of stem/leaf parts; type: functional, organism-based; also: test concentration or dose not given here
Pontederia vaginalis [20] = experiment: Post-emergence herbicidal activity against Monochoria vaginalis assessed as bleaching of stem/leaf parts; type: functional, organism-based
Echinochloa oryzicola [21] = experiment: Post-emergence herbicidal activity against Echinochloa oryzicola assessed as bleaching of stem/leaf parts; type: functional, organism-based
Ammannia multiflora [22] = experiment: Pre-emergence herbicidal activity against Ammannia multiflora assessed as bleaching of stem/leaf parts; type: functional, organism-based
Elatine triandra [23] = experiment: Pre-emergence herbicidal activity against Elatine triandra assessed as bleaching of stem/leaf parts; type: functional, organism-based
Rotala indica [24] = experiment: Pre-emergence herbicidal activity against Rotala indica assessed as bleaching of stem/leaf parts; type: functional, organism-based

CSc1ccc(Oc2nn(C)cc2C(=O)Nc2ccc(F)cc2F)cc1C(F)(F)F
Activity (Elatine triandra [1]): Active | Activity (Ammannia multiflora [2]): Active | Activity (Rotala indica [3]): Active | Activity (Lindernia procumbens [4]): Active | Activity [5]: Active | Activity (Ammannia multiflora [6]): Active | Activity (Elatine triandra [7]): Active | Activity (Oryza sativa): Non-toxic | Activity (Rotala indica [8]): Active | Activity (Lindernia procumbens [9]): Active | Activity [10]: inactive | Activity (Pontederia vaginalis [11]): Active | Activity (Cyperus difformis [12]): Active | Activity (Echinochloa oryzicola [13]): Active | Activity (Lindernia procumbens [14]): Active | Activity (Pontederia vaginalis [15]): Active | Activity [16]: Active | Activity (Cyperus difformis [17]): Active | Activity (Echinochloa oryzicola [18]): Active | Activity (Cyperus difformis [19]): Active | Activity (Pontederia vaginalis [20]): Active | Activity (Echinochloa oryzicola [21]): Active | Activity (Ammannia multiflora [22]): Active | Activity (Elatine triandra [23]): Active | Activity (Rotala indica [24]): Active

Cn1cc(C(=O)Nc2ccc(F)cc2F)c(Oc2cc(C(F)(F)F)ccn2)n1
Activity (Elatine triandra [1]): Active | Activity (Ammannia multiflora [2]): Active | Activity (Rotala indica [3]): Active | Activity (Lindernia procumbens [4]): Active | Activity [5]: Active | Activity (Ammannia multiflora [6]): inactive | Activity (Elatine triandra [7]): inactive | Activity (Oryza sativa): Non-toxic | Activity (Rotala indica [8]): inactive | Activity (Lindernia procumbens [9]): inactive | Activity [10]: inactive | Activity (Pontederia vaginalis [11]): inactive | Activity (Cyperus difformis [12]): inactive | Activity (Echinochloa oryzicola [13]): inactive | Activity (Lindernia procumbens [14]): Active | Activity (Pontederia vaginalis [15]): Active | Activity [16]: Active | Activity (Cyperus difformis [17]): Active | Activity (Echinochloa oryzicola [18]): Active | Activity (Cyperus difformis [19]): Active | Activity (Pontederia vaginalis [20]): Active | Activity (Echinochloa oryzicola [21]): Active | Activity (Ammannia multiflora [22]): Active | Activity (Elatine triandra [23]): Active | Activity (Rotala indica [24]): Active

Cn1cc(C(=O)NCc2cccc(Cl)c2)c(Oc2cccc(C(F)(F)F)c2)n1
Activity (Elatine triandra [1]): Active | Activity (Ammannia multiflora [2]): Active | Activity (Rotala indica [3]): Active | Activity (Lindernia procumbens [4]): Active | Activity [5]: Active | Activity (Ammannia multiflora [6]): inactive | Activity (Elatine triandra [7]): inactive | Activity (Oryza sativa): Non-toxic | Activity (Rotala indica [8]): inactive | Activity (Lindernia procumbens [9]): inactive | Activity [10]: inactive | Activity (Pontederia vaginalis [11]): inactive | Activity (Cyperus difformis [12]): inactive | Activity (Echinochloa oryzicola [13]): inactive | Activity (Lindernia procumbens [14]): Active | Activity (Pontederia vaginalis [15]): Active | Activity [16]: Active | Activity (Cyperus difformis [17]): Active | Activity (Echinochloa oryzicola [18]): Active | Activity (Cyperus difformis [19]): Active | Activity (Pontederia vaginalis [20]): Active | Activity (Echinochloa oryzicola [21]): Active | Activity (Ammannia multiflora [22]): Active | Activity (Elatine triandra [23]): Active | Activity (Rotala indica [24]): Active

C#CCNC(=O)c1cn(C)nc1Oc1cccc(C(F)(F)F)c1
Activity (Elatine triandra [1]): Active | Activity (Ammannia multiflora [2]): Active | Activity (Rotala indica [3]): Active | Activity (Lindernia procumbens [4]): Active | Activity [5]: Active | Activity (Ammannia multiflora [6]): inactive | Activity (Elatine triandra [7]): inactive | Activity (Oryza sativa): Non-toxic | Activity (Rotala indica [8]): inactive | Activity (Lindernia procumbens [9]): inactive | Activity [10]: inactive | Activity (Pontederia vaginalis [11]): inactive | Activity (Cyperus difformis [12]): inactive | Activity (Echinochloa oryzicola [13]): inactive | Activity (Lindernia procumbens [14]): Active | Activity (Pontederia vaginalis [15]): Active | Activity [16]: Active | Activity (Cyperus difformis [17]): Active | Activity (Echinochloa oryzicola [18]): Active | Activity (Cyperus difformis [19]): Active | Activity (Pontederia vaginalis [20]): Active | Activity (Echinochloa oryzicola [21]): Active | Activity (Ammannia multiflora [22]): Active | Activity (Elatine triandra [23]): Active | Activity (Rotala indica [24]): Active

Cn1cc(NC(=O)c2ccccc2)c(Oc2cccc(C(F)(F)F)c2)n1
Activity (Elatine triandra [1]): Active | Activity (Ammannia multiflora [2]): Active | Activity (Rotala indica [3]): Active | Activity (Lindernia procumbens [4]): Active | Activity [5]: Active | Activity (Ammannia multiflora [6]): inactive | Activity (Elatine triandra [7]): inactive | Activity (Oryza sativa): Non-toxic | Activity (Rotala indica [8]): inactive | Activity (Lindernia procumbens [9]): inactive | Activity [10]: inactive | Activity (Pontederia vaginalis [11]): inactive | Activity (Cyperus difformis [12]): inactive | Activity (Echinochloa oryzicola [13]): Active | Activity (Lindernia procumbens [14]): Active | Activity (Pontederia vaginalis [15]): Active | Activity [16]: Active | Activity (Cyperus difformis [17]): Active | Activity (Echinochloa oryzicola [18]): Active | Activity (Cyperus difformis [19]): Active | Activity (Pontederia vaginalis [20]): Active | Activity (Echinochloa oryzicola [21]): Active | Activity (Ammannia multiflora [22]): Active | Activity (Elatine triandra [23]): Active | Activity (Rotala indica [24]): Active

CCCCNC(=O)c1cn(C)nc1Oc1cccc(C(F)(F)F)c1
Activity (Elatine triandra [1]): Active | Activity (Ammannia multiflora [2]): Active | Activity (Rotala indica [3]): Active | Activity (Lindernia procumbens [4]): Active | Activity [5]: Active | Activity (Ammannia multiflora [6]): inactive | Activity (Elatine triandra [7]): inactive | Activity (Oryza sativa): Non-toxic | Activity (Rotala indica [8]): inactive | Activity (Lindernia procumbens [9]): inactive | Activity [10]: inactive | Activity (Pontederia vaginalis [11]): inactive | Activity (Cyperus difformis [12]): inactive | Activity (Echinochloa oryzicola [13]): inactive | Activity (Lindernia procumbens [14]): Active | Activity (Pontederia vaginalis [15]): Active | Activity [16]: Active | Activity (Cyperus difformis [17]): Active | Activity (Echinochloa oryzicola [18]): Active | Activity (Cyperus difformis [19]): Active | Activity (Pontederia vaginalis [20]): Active | Activity (Echinochloa oryzicola [21]): Active | Activity (Ammannia multiflora [22]): Active | Activity (Elatine triandra [23]): Active | Activity (Rotala indica [24]): Active

CC(NC(=O)c1cn(C)nc1Oc1cccc(C(F)(F)F)c1)c1ccccc1 (stereo not given)
Activity (Elatine triandra [1]): Active | Activity (Ammannia multiflora [2]): Active | Activity (Rotala indica [3]): Active | Activity (Lindernia procumbens [4]): Active | Activity [5]: Active | Activity (Ammannia multiflora [6]): inactive | Activity (Elatine triandra [7]): inactive | Activity (Oryza sativa): Non-toxic | Activity (Rotala indica [8]): inactive | Activity (Lindernia procumbens [9]): inactive | Activity [10]: inactive | Activity (Pontederia vaginalis [11]): inactive | Activity (Cyperus difformis [12]): inactive | Activity (Echinochloa oryzicola [13]): inactive | Activity (Lindernia procumbens [14]): Active | Activity (Pontederia vaginalis [15]): Active | Activity [16]: Active | Activity (Cyperus difformis [17]): Active | Activity (Echinochloa oryzicola [18]): Active | Activity (Cyperus difformis [19]): Active | Activity (Pontederia vaginalis [20]): Active | Activity (Echinochloa oryzicola [21]): Active | Activity (Ammannia multiflora [22]): Active | Activity (Elatine triandra [23]): Active | Activity (Rotala indica [24]): Active

Cn1cc(NC(=O)c2ccc(F)cc2F)c(Oc2cccc(C(F)(F)F)c2)n1
Activity (Elatine triandra [1]): Active | Activity (Ammannia multiflora [2]): Active | Activity (Rotala indica [3]): Active | Activity (Lindernia procumbens [4]): Active | Activity [5]: Active | Activity (Ammannia multiflora [6]): inactive | Activity (Elatine triandra [7]): inactive | Activity (Oryza sativa): Non-toxic | Activity (Rotala indica [8]): inactive | Activity (Lindernia procumbens [9]): inactive | Activity [10]: inactive | Activity (Pontederia vaginalis [11]): inactive | Activity (Cyperus difformis [12]): inactive | Activity (Echinochloa oryzicola [13]): inactive | Activity (Lindernia procumbens [14]): Active | Activity (Pontederia vaginalis [15]): Active | Activity [16]: Active | Activity (Cyperus difformis [17]): Active | Activity (Echinochloa oryzicola [18]): Active | Activity (Cyperus difformis [19]): Active | Activity (Pontederia vaginalis [20]): Active | Activity (Echinochloa oryzicola [21]): Active | Activity (Ammannia multiflora [22]): Active | Activity (Elatine triandra [23]): Active | Activity (Rotala indica [24]): Active

Cn1cc(C(=O)NC2CC2)c(Oc2cccc(C(F)(F)F)c2)n1
Activity (Elatine triandra [1]): Active | Activity (Ammannia multiflora [2]): Active | Activity (Rotala indica [3]): Active | Activity (Lindernia procumbens [4]): Active | Activity [5]: Active | Activity (Ammannia multiflora [6]): inactive | Activity (Elatine triandra [7]): inactive | Activity (Oryza sativa): Non-toxic | Activity (Rotala indica [8]): inactive | Activity (Lindernia procumbens [9]): inactive | Activity [10]: inactive | Activity (Pontederia vaginalis [11]): inactive | Activity (Cyperus difformis [12]): inactive | Activity (Echinochloa oryzicola [13]): inactive | Activity (Lindernia procumbens [14]): Active | Activity (Pontederia vaginalis [15]): Active | Activity [16]: Active | Activity (Cyperus difformis [17]): Active | Activity (Echinochloa oryzicola [18]): Active | Activity (Cyperus difformis [19]): Active | Activity (Pontederia vaginalis [20]): Active | Activity (Echinochloa oryzicola [21]): Active | Activity (Ammannia multiflora [22]): Active | Activity (Elatine triandra [23]): Active | Activity (Rotala indica [24]): Active
